{"source": "paper PMC11525786", "about": "“In silico and pharmacological evaluation of GPR65 as a cancer immunotherapy target regulating T-cell functions” (Frontiers in Immunology, 2024)", "target": "T1, GPR65 (Homo sapiens, UniProt Q8IYL9)", "T1 construct": "GPR65 overexpressed in A375 cells (rCD2-GPR65 tandem lentivector)", "T1 sequence (Q8IYL9 whole entry)": "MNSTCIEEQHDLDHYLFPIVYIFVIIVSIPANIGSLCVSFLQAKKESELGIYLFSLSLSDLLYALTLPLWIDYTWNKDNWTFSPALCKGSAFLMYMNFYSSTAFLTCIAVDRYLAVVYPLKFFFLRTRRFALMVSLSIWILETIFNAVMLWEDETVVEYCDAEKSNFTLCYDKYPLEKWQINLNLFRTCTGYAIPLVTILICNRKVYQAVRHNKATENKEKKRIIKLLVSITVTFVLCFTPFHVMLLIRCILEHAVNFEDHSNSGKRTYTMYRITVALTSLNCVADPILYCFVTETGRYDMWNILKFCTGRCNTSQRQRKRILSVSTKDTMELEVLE", "assay": "HTRF cAMP induction in GPR65-overexpressing A375 cells ([…] agonist, pH […]), blocked by GPR65 antagonists", "format": "cell-based"}
{"smiles": "CN1N=C(SCc2ccc(Cl)cc2Cl)Sc2c1cnn(C)c2=O", "note": "[BTB09089, 3-[(2,4-dichlorobenzyl)thio]-1,6-dimethyl-5,6-dihydro-1H-pyridazino [4,5-e][1,3,4]thiadiazin-5-one]", "values": [{"measurement": "HTRF cAMP induction in GPR65-overexpressing A375 cells (1 μM agonist, pH 7.5), b", "result": "capacity to inhibit cAMP biosynthesis upon GPR65 activation by BTB09089"}]}
